Experimental data as given in patent publication US5552407A (priority 1993, dated 1996).
“Also recorded” adds a separate entry of the source. Read-outs that look alike come from different tables or passages of the source.

What was measured:
[1] = test system: squirrel monkeys; assay: Whole body plethysmograph, airway conductance / bronchoconstriction in vivo; design: species or system squirrel monkey
Experimental: (§1) Squirrel monkeys or guinea pigs were restrained in a whole body plethysmograph, a sealed box with a separate face mask for each animal. A pneumotachograph and stain gauge assembly permitted the measurement of flow. The ratio of derivatives of flow to box pressure yield a measure of airway conductance (SGAW). MEG was administered at concentrations up to 15 mg/liter of air.
This was studied by exposing a population of squirrel monkeys, which were well-trained and adapted to the experimental setting, to aerosolized cholinergic agonists and then studying the effects of MEG or cocaine pretreatment on the response to cholinergic provocation.
Care was taken to exclude any other source of potential measurement artifact, including reducing dead volumes, examining for leaks, recalibration, and so forth. The particles were dehydrated to reduce their size and facilitate airway entry. The monkeys' nares were occluded to compel mouth breathing. Greater methacholine concentrations in the nebulizer were tested until dramatic decreases in heart rate occurred, consistent with significant systemic absorption of this relatively short duration cholinergic agonist.
This may reflect the antihistaminic activity of MEG observed in vitro.

[2] = test system: guinea pig tracheal rings; assay: Histamine-induced contraction of isolated tracheal rings
[3] = test system: chicken biventer cervicis muscle; assay: Chicken biventer cervicis muscle in vitro, assay for antinicotinic activity; type: cell-based
Source text: As observed by the present inventors, MEG was ineffective in altering the amplitude of tension produced by supramaximal electrical stimulation, or ACh-produced contraction of the chicken biventer cervicis muscle in vitro, an assay for antinicotinic activity (B. L. Ginsborg et al., Br. J. Pharmacol. 15:410 (1960); H. A. N. El-Fawal et al., Neurotoxicology 9:625 (1988)).

[4] = test system: guinea pig tracheal rings; assay: Relaxation or tension of pre-contracted tracheal rings
[5] = test system: guinea pigs; assay: Inhalation exposure safety in guinea pigs; type: in vivo, guinea pig
Experimental: as §1
Guinea pigs are known to be highly sensitive to pulmonary manipulations.

[6] = test system: guinea pig tracheal rings; assay: Carbachol-induced contraction of isolated tracheal rings; conditions: Cavia porcellus, 5 min, read-out: reduction of carbachol-induced contraction
[7] = test system: guinea pig tracheal rings; assay: Acetylcholine-induced contraction of isolated tracheal rings; conditions: for minimal effective concentration: Cavia porcellus, 5 min; for spasmogenic activity by itself: absence of ACh
[8] = test system: guinea pig tracheal rings; conditions: atropine at 3, 10 and 30 nM; cited from earlier work
[9] = test system: guinea pig tracheal rings; conditions: cited from earlier work
[10] = test system: muscarinic receptor; conditions: cited from earlier work

COC(=O)C1=CCC2CCC1N2C (centres unmarked) [MEG, anhydroecgonine methyl ester]
bronchoconstriction in response to inhaled histamine ([1]; animals pretreated with MEG): bronchoconstriction, but only at unusually high levels
airway effect of MEG given alone by inhalation ([1]; squirrel monkeys or guinea pigs, up to 15 mg/liter of air): Bronchoconstriction was observed
bronchoconstriction in response to aerosolized ACh or methacholine ([1]; squirrel monkeys with extensive histories of exposure to MEG): unable to produce bronchoconstriction; also recorded: no bronchoconstriction observed
effect on histamine threshold ([2]; MEG 10^-7): shifting the histamine threshold upwards
effect on contraction-inducing action of histamine ([2]; MEG 10^-7 and 10^-9 M): antagonized the contraction-inducing action of histamine
effect on amplitude of tension from supramaximal electrical stimulation or ACh-produced contraction [3]: ineffective
effect on rings with mechanically elevated tension [4]: failed to relax
concentrations for relaxation relative to those antagonizing ACh-induced contraction with preincubation ([4]; pre-contraction with 10^-3 ACh): two orders of magnitude higher
effect on rings pre-contracted with ACh ([4]; pre-contraction with 10^-3 ACh): dose-dependent relaxation
mortality ([5]; 14 mg/liter of air by inhalation): Only one exposed guinea pig died
margin of safety ([5]; in vivo studies): wide margin of safety
inhibition at 0.1 µM [6]: 50%
cholinergic agonist activity [7]: lack any cholinergic agonist activity
kind of antagonism of ACh-induced contraction ([7]; ACh up to 2×10^-3 M): reduced the magnitude of contraction produced by ACh without changing the tissue threshold of contraction; also recorded: could not be overcome; also recorded: non-competitively antagonized acetylcholine; also recorded: potent non-competitive cholinergic antagonist
minimal effective concentration ([7]; read-out: concentration at and above which insurmountable non-competitive antagonism was produced): ≥ 0.001 µM
minimal effective concentration ([7]; read-out: concentration at and above which peak tension produced by ACh was reduced): ≥ 0.001 µM
minimal effective concentration ([7]; read-out: lowest level showing anticholinergic properties): 0.1 µM
effect of MEG on cocaine's sensitization/potentiation of ACh ([7]; MEG 10^-7 M with cocaine 5×10^-6 M): antagonized cocaine's potentiation of acetylcholine's efficacy; also recorded: reduced the sensitization to ACh; also recorded: non-competitively antagonized ACh in the presence of cocaine sensitization
recovery of responsiveness to ACh after exposure ([7]; after washing of the preparation): full responsiveness to ACh could not be restored; also recorded: no recovery after washing of the preparation; also recorded: irreversible

CN1[C@@H]2CC[C@H]1C[C@@H](OC(=O)C(CO)c1ccccc1)C2 (some centres unmarked) [atropine]
kind of antagonism of ACh-induced contraction [8]: competitively antagonized ACh-induced contraction
carbachol concentration at which the effect was surmountable ([9]; 10^-7 M atropine): 10^-4 M
magnitude of reduction at any given carbachol concentration, compared with MEG ([9]; 10^-7 atropine): usually less than that produced by MEG

COC(=O)[C@H]1[C@@H](OC(=O)c2ccccc2)C[C@@H]2CC[C@H]1N2C [cocaine, reference compound]
effect on tissue pre-contracted with ACh ([4]; cocaine from 10^-4 M to 2×10^-3 M): further increase in dose-dependent tension
concentration with antimuscarinic properties as assayed by QNB binding [10]: 18 µM
spasmogenic activity by itself [7]: did not produce tension in the absence of ACh
spasmogenic activity by itself ([7]; listed as Cocaine): did not display any spasmogenic activity
effect on maximum tension produced by ACh ([7]; cocaine 5×10^-6 M): increased the maximum tension produced
lowering of the threshold at which ACh produced tension ([7]; cocaine 5×10^-6 M): two orders of magnitude
concentration that decreased ACh-induced tension ([7]; cocaine HCl): 10^-4 M
concentrations that increased ACh-induced tension ([7]; cocaine HCl, 5 min incubation): 10^-7 to 10^-5 M
effect on maximum response relative to ACh alone ([7]; cocaine at 10^-4 M): reduced the maximum response to a third
effect on threshold for contraction elicited by ACh ([7]; cocaine at 10^-4 M): increased the threshold
effect on threshold for contraction elicited by ACh ([7]; cocaine at 10^-6 M): lowered the threshold
effect on tension produced by ACh at the highest ACh concentration ([7]; cocaine at 10^-7 M, ACh 2×10^-3 M): increased the tension
recovery of responsiveness to ACh after exposure ([7]; cocaine at concentrations below 10^-4 M): restored with no desensitization
